Data from ChEMBL document CHEMBL5505952, “Targeting SARS-CoV-2 entry processes: The promising potential and future of host-targeted small-molecule inhibitors” (Eur J Med Chem, 2024).

Assays:
SARS-CoV-2 [1] = format: functional, organism-based; settings: Severe acute respiratory syndrome coronavirus 2, Vero C1008
[2] = tested on: Respiratory syncytial virus; assay: microbe, parasite or virus in culture; settings: human respiratory syncytial virus, A2, HEp-2
[3] = target: Spike glycoprotein/Angiotensin-converting enzyme 2 (Severe acute respiratory syndrome coronavirus 2, UniProt P0DTC2+Q9BYF1); assay: Inhibition of SARS-CoV-2 spike protein RBD- human ACE2 interaction; format: protein assay
SARS-CoV-2 [4] = format: functional, organism-based; settings: Severe acute respiratory syndrome coronavirus 2, NRC-03-nhCoV, Vero C1008
SARS-CoV-2 [5] = assay: microbe, parasite or virus in culture; settings: Severe acute respiratory syndrome coronavirus 2, Huh-7
SARS-CoV-2 [6] = format: functional, organism-based; settings: Severe acute respiratory syndrome coronavirus 2, Huh-7
SARS-CoV-2 [7] = assay: microbe, parasite or virus in culture; settings: Severe acute respiratory syndrome coronavirus 2, Vero C1008, 24 h
SARS-CoV-2 [8] = assay: Antiviral activity against VSV-S pseudotyped SARS-CoV-2 infected in human Calu-3 cells assessed as inhibition of viral growth; format: functional, organism-based; settings: Severe acute respiratory syndrome coronavirus 2, Calu-3
SARS-CoV-2 [9] = assay: microbe, parasite or virus in culture; settings: Severe acute respiratory syndrome coronavirus 2, B.1, VeroE6/TMPRSS2, 48 h
Procathepsin L = Procathepsin L (Homo sapiens, UniProt P07711); assay: Inhibition of human Cathepsin L using Cbz-Phe-Arg-AMC as substrate measured for 10 mins by fluorescence based analysis
SARS-CoV-2 [10] = assay: microbe, parasite or virus in culture; settings: Severe acute respiratory syndrome coronavirus 2, A549-ACE2
SARS-CoV-2 [11] = format: functional, organism-based; settings: Severe acute respiratory syndrome coronavirus 2, Vero C1008, 48 h
SARS-CoV-2 [12] = assay: Antiviral activity against SARS-CoV-2 WA1/2020 infected in human Calu-3 cells preincubated for 2 hrs followed by viral infection and measured after 48 hrs by microscopy analysis; format: functional, organism-based; settings: Severe acute respiratory syndrome coronavirus 2, WA1/2020, Calu-3
Dengue virus = format: functional, organism-based; settings: Huh-7, 48 h
Ebolavirus = assay: Antiviral activity against Ebola virus infected in human HeLa cells assessed as reduction in viral cytopathic effect; format: functional, organism-based; settings: Orthoebolavirus
[13] = target: T1, 1-phosphatidylinositol 3-phosphate 5-kinase (Homo sapiens, UniProt Q9Y2I7); assay: Binding affinity to N-terminal His-tagged human PIKfyve expressed in Sf9 cells assessed as dissociation constant
SARS-CoV-2 [14] = format: functional, organism-based; settings: Severe acute respiratory syndrome coronavirus 2, Vero C1008, 72 h
SARS-CoV-2 [15] = format: functional, organism-based; settings: Severe acute respiratory syndrome coronavirus 2, NRC-03-nhCoV, Vero C1008, 72 h
SARS-CoV-2 [16] = format: functional, organism-based; settings: Severe acute respiratory syndrome coronavirus 2, Vero C1008, 48 h; remark: listed apart in the source
[17] = target: T1, 1-phosphatidylinositol 3-phosphate 5-kinase; assay: Inhibition of PIKfyve (unknown origin)
[18] = target: Replicase polyprotein 1ab (Severe acute respiratory syndrome coronavirus 2, UniProt P0DTD1); assay: Inhibition of SARS-CoV-2 MPro expressed in Escherichia coli BL21 (DE3) using Dabcyl-KTSAVLQSGFRKME-Edans as substrate incubated for 1 hr by fluorescence based analysis

T1 sequence (Q9Y2I7 whole entry): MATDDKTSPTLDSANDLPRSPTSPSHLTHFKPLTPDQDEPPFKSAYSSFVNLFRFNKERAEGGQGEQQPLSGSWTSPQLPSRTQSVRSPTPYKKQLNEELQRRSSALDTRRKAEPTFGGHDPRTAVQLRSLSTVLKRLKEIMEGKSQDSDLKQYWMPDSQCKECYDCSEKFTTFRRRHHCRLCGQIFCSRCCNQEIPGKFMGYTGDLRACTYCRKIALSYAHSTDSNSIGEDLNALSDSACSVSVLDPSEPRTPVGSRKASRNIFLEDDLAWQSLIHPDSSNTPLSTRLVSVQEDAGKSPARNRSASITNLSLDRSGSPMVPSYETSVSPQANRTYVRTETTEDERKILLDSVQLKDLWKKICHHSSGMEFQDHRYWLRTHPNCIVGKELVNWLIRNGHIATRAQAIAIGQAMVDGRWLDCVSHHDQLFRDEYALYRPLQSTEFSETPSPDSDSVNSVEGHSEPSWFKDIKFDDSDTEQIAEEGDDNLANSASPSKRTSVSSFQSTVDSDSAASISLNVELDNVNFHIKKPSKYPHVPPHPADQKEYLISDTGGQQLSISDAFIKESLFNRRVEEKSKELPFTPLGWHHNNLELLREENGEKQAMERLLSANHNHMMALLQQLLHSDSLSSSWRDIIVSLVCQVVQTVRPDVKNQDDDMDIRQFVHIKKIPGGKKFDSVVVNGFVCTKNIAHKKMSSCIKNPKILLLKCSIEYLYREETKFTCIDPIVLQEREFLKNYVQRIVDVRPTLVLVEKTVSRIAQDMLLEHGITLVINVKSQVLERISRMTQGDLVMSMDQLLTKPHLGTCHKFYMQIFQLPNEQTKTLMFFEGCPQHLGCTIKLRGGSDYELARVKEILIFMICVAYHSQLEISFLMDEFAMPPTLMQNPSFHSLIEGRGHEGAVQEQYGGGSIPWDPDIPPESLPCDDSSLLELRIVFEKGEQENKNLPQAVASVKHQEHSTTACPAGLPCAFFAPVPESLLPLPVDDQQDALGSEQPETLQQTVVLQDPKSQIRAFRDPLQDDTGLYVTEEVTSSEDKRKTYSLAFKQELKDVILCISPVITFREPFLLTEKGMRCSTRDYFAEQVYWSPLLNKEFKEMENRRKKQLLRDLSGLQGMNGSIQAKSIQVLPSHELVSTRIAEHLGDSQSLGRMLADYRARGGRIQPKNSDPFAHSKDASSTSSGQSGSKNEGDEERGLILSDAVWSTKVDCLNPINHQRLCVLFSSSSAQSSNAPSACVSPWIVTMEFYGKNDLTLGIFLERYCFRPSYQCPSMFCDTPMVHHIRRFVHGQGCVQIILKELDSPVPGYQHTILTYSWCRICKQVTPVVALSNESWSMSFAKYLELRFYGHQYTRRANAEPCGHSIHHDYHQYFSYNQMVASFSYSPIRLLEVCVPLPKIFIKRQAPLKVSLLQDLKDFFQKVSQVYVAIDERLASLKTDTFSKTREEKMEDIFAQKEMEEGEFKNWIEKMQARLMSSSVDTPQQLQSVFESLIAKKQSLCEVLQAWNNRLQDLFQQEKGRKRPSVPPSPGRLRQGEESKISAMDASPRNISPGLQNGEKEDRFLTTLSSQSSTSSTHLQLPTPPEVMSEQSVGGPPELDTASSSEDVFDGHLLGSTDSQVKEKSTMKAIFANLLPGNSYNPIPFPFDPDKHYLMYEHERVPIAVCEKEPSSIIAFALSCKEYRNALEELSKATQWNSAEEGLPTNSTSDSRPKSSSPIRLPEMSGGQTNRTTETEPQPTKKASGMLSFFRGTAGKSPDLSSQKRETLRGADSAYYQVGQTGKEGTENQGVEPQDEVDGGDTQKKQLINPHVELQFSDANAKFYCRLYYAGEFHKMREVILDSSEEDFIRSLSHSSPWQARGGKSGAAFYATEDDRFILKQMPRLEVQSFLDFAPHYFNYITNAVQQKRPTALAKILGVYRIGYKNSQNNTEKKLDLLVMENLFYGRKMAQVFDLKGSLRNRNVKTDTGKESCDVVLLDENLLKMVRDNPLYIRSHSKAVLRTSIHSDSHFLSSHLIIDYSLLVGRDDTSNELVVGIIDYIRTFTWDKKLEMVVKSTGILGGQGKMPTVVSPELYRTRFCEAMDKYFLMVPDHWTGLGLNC
Chain of Spike glycoprotein/Angiotensin-converting enzyme 2 (Q9BYF1 18-805 limits assumed, other chains not shown): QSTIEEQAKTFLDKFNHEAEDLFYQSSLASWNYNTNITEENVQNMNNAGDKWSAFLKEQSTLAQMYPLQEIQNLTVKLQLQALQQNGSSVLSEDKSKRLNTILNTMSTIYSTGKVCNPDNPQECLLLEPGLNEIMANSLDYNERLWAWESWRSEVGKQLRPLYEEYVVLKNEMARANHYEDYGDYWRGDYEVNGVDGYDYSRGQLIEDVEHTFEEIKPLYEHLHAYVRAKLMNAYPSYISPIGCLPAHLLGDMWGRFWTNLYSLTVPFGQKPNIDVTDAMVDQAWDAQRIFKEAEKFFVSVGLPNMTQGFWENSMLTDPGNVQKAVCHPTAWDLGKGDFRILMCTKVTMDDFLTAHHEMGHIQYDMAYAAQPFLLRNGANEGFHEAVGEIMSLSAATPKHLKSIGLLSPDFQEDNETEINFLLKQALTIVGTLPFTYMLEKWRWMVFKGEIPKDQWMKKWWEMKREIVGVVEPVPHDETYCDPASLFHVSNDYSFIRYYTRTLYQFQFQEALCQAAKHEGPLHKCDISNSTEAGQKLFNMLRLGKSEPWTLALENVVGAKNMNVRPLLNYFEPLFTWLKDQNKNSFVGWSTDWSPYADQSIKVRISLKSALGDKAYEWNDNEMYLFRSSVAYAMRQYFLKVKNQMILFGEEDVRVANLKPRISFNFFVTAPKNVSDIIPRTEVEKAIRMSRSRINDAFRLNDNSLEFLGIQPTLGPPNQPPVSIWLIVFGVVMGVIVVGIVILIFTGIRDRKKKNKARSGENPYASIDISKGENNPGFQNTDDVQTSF
Chain of Procathepsin L (P07711 whole entry): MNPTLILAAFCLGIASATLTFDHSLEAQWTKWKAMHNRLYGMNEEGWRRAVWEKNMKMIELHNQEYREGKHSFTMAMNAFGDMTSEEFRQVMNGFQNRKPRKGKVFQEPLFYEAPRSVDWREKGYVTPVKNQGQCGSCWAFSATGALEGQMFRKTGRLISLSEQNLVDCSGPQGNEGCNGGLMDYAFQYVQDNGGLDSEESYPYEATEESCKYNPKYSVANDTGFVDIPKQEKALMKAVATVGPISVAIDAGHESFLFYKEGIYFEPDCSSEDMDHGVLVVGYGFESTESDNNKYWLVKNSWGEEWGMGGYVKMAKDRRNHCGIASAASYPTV

Structure (SMILES): CC(C)CCC[C@@H](C)[C@H]1CC[C@H]2[C@@H]3CC[C@H]4C[C@@H](O[C@@H]5O[C@H](COS(=O)(=O)[O-])[C@@H](O[C@H]6O[C@H](COS(=O)(=O)[O-])[C@@H](O[C@H]7O[C@H](COS(=O)(=O)[O-])[C@@H](O[C@H]8O[C@H](COS(=O)(=O)[O-])[C@@H](OS(=O)(=O)[O-])[C@H](OS(=O)(=O)[O-])[C@H]8OS(=O)(=O)[O-])[C@H](OS(=O)(=O)[O-])[C@H]7OS(=O)(=O)[O-])[C@H](OS(=O)(=O)[O-])[C@H]6OS(=O)(=O)[O-])[C@H](OS(=O)(=O)[O-])[C@H]5OS(=O)(=O)[O-])CC[C@]4(C)[C@H]3CC[C@]12C.[Na+].[Na+].[Na+].[Na+].[Na+].[Na+].[Na+].[Na+].[Na+].[Na+].[Na+].[Na+].[Na+]
- EC50 (SARS-CoV-2 [1]): 0.9 µg/mL
- IC50 [2]: 9.9 µg/mL
- IC50 [3]: 4270 nM

Structure (SMILES): CCC[C@H](NC(=O)[C@@H]1[C@H]2CCC[C@H]2CN1C(=O)[C@@H](NC(=O)[C@@H](NC(=O)c1cnccn1)C1CCCCC1)C(C)(C)C)C(=O)C(=O)NC1CC1
- IC50 (SARS-CoV-2 [4]): 11600 nM

Structure (SMILES): C[C@H](NC(=O)[C@H](Cc1ccccc1)NC(=O)OCc1ccccc1)C(=O)CF
- EC50 (SARS-CoV-2 [5]): 701000 nM
- EC50 (SARS-CoV-2 [6]): 9610 nM

Structure (SMILES): CC(C)(C)OC(=O)N[C@@H](Cc1c[nH]c2ccccc12)C(=O)NNC(=O)OCC(=O)N1CCCc2ccccc21
- EC50 (SARS-CoV-2 [7]): 10900 nM

Structure (SMILES): CC(=O)N[C@@H](CO)C(=O)N[C@@H](CCCCN)C(=O)N[C@@H](CC(C)C)C(=O)N[C@@H](CCCNC(=N)N)C(=O)c1nc2ccccc2s1
- EC50 (SARS-CoV-2 [8]): 4270 nM

Structure (SMILES): CCCCCCCCCC(=O)N[C@@H](Cc1c[nH]c2ccccc12)C(=O)N[C@H](CC(N)=O)C(=O)N[C@@H](CC(=O)O)C(=O)N[C@@H]1C(=O)NCC(=O)N[C@@H](CCCN)C(=O)N[C@@H](CC(=O)O)C(=O)N[C@H](C)C(=O)N[C@@H](CC(=O)O)C(=O)NCC(=O)N[C@H](CO)C(=O)N[C@@H]([C@H](C)CC(=O)O)C(=O)N[C@@H](CC(=O)c2ccccc2N)C(=O)O[C@@H]1C
- EC50 (SARS-CoV-2 [9]): 226000 nM
- IC50 (Procathepsin L): 7870 nM
- EC50 (SARS-CoV-2 [5]): 207000 nM
- EC50 (SARS-CoV-2 [10]): 98800 nM

Structure (SMILES): CC(=O)N[C@H]1CC(=O)NCCCC[C@@H](C(=O)N[C@@H](CCCNC(=N)N)C(=O)c2nc3ccccc3s2)NC(=O)[C@H](CC(C)C)NC1=O
- EC50 (SARS-CoV-2 [11]): 104 nM
- IC50 (SARS-CoV-2 [12]): 660 nM
- EC50 (SARS-CoV-2 [8]): 197 nM

Structure (SMILES): N#Cc1ccc(-c2cnc3[nH]cc(NC(=O)c4cccnc4)c3c2)cc1
- EC50 (Dengue virus): 8000 nM
- EC50 (Ebolavirus): > 10000 nM

Structure (SMILES): Ic1cccc(/C=N/Nc2nc(N3CCOCC3)nc(N(c3ccccc3)c3ccccc3)n2)c1
- Kd [13]: 32 nM

Structure (SMILES): COc1ccc(C(=O)Nc2cccc(C(F)(F)F)c2)cc1Nc1nc(-c2cccnc2)c2[nH]ccc2n1
- EC50 (SARS-CoV-2 [14]): 9.3 nM

Structure (SMILES): COc1ccccc1/C=N/NC(=N)c1nonc1NCNc1nonc1C(=N)N/N=C/c1ccccc1OC
- IC50 (SARS-CoV-2 [15]): 19 nM

Structure (SMILES): CN(C)Cc1ccc2[nH]c3c(c2c1)Cc1nc(N)ncc1CC3
- IC50 (SARS-CoV-2 [16]): 19.5 nM
- IC50 [17]: 6.9 nM

Structure (SMILES): CS(=O)(=O)N[C@@H](CCC(N)=O)C(=O)N[C@@H](Cc1ccccc1)C(=O)N[C@@H](CCCNC(=N)N)C(=O)c1nc2ccccc2s1
- EC50 (SARS-CoV-2 [8]): 2.8 nM

Structure (SMILES): CC(=O)N[C@@H](CC(C)C)C(=O)N[C@@H](CC(C)C)C(=O)N[C@H](C=O)CCCNC(=N)N
- EC50 (SARS-CoV-2 [5]): 39300 nM
- IC50 [18]: 127000 nM
- EC50 (SARS-CoV-2 [6]): 10600 nM

Structure (SMILES): C1=Nc2ccccc2/C1=C\NNc1nc(Nc2ccccc2)nc(N2CCOCC2)n1
- Kd [13]: 0.91 nM

Structure (SMILES): O=C(N[C@H](/C=C/S(=O)(=O)c1ccccc1)CCc1ccccc1)[C@H](Cc1ccccc1)NC(=O)N1CCNCC1
- EC50 (SARS-CoV-2 [7]): 35 nM

Structure (SMILES): CC(=O)N[C@@H](CCC(N)=O)C(=O)N[C@@H](Cc1ccccc1)C(=O)N[C@@H](CCCNC(=N)N)C(=O)c1nc2ccccc2s1
- IC50 (SARS-CoV-2 [12]): 52 nM
- EC50 (SARS-CoV-2 [8]): 0.53 nM

Structure (SMILES): CC(=O)NCC(=O)N[C@@H](CCC(N)=O)C(=O)N[C@@H](Cc1ccccc1)C(=O)N[C@@H](CCCNC(=N)N)C(=O)c1nc2ccccc2s1
- IC50 (SARS-CoV-2 [12]): 74 nM
- EC50 (SARS-CoV-2 [8]): 0.43 nM

Structure (SMILES): CCC(O)(CC)c1ccc2[nH]c3c(c2c1)Cc1nc(N)ncc1CC3
- IC50 (SARS-CoV-2 [16]): 23.9 nM
- IC50 [17]: 1.8 nM
